Measurements: publication PMC9929631 (The EMBO Journal, 2023)
“Also recorded” adds a separate entry of the source. Like-named read-outs stand apart in the source and are kept apart here. Numbered stars: 1 amine (or outer) side, 2 acyl side, 3 side chain; on linkers, the order of the positions; unused ones are H or OH. Square brackets hold non-standard residues; d marks the D form. Ends that are not written are not given here. Peptide text beside a SMILES is read from it. * marks the point of attachment. X1 = N=c1ccc2c(-c3ccccc3C(=O)*)c3ccc(N)c(S(=O)(=O)O)c3oc-2c1S(=O)(=O)O; NMeGABA = CN(CCCC(=O)[*:2])[*:1]

Assays:
[1] = tested on: DDB1‐DCAF12, DCAF12 His144Ala mutant; type: binding, human; conditions: TR-FRET titration, n = 3
[2] = tested on: DDB1‐DCAF12, DCAF12 Lys108Ala mutant; type: binding, human; conditions: TR-FRET titration, n = 3
[3] = tested on: DDB1‐DCAF12, DCAF12 Arg203Ala mutant; type: binding, human; conditions: TR-FRET titration, n = 3
[4] = tested on: DDB1‐DCAF12, DCAF12 Arg256Ala mutant; type: binding, human; conditions: TR-FRET titration, n = 3
[5] = tested on: DDB1‐DCAF12, DCAF12 Arg344Ala mutant; type: binding, human; conditions: TR-FRET titration, n = 3
DDB1‐DCAF12 [6] = biological target: T1, DDB1‐DCAF12 (Homo sapiens, UniProt Q16531+Q5T6F0); test: TR-FRET competition assay; type: binding
T1 sequence (Q5T6F0 whole entry): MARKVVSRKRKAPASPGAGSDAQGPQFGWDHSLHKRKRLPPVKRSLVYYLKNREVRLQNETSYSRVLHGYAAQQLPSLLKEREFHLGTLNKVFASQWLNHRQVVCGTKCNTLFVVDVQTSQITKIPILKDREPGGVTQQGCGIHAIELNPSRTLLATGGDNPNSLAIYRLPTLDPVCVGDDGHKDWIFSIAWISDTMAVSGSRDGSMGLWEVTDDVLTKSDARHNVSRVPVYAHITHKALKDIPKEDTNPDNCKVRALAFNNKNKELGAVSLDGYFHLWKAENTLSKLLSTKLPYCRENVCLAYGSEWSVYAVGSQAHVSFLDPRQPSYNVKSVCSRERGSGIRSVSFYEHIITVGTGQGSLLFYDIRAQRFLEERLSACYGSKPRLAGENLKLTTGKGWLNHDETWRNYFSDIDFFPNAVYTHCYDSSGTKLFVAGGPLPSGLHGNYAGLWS
T1 sequence (Q16531 whole entry partner): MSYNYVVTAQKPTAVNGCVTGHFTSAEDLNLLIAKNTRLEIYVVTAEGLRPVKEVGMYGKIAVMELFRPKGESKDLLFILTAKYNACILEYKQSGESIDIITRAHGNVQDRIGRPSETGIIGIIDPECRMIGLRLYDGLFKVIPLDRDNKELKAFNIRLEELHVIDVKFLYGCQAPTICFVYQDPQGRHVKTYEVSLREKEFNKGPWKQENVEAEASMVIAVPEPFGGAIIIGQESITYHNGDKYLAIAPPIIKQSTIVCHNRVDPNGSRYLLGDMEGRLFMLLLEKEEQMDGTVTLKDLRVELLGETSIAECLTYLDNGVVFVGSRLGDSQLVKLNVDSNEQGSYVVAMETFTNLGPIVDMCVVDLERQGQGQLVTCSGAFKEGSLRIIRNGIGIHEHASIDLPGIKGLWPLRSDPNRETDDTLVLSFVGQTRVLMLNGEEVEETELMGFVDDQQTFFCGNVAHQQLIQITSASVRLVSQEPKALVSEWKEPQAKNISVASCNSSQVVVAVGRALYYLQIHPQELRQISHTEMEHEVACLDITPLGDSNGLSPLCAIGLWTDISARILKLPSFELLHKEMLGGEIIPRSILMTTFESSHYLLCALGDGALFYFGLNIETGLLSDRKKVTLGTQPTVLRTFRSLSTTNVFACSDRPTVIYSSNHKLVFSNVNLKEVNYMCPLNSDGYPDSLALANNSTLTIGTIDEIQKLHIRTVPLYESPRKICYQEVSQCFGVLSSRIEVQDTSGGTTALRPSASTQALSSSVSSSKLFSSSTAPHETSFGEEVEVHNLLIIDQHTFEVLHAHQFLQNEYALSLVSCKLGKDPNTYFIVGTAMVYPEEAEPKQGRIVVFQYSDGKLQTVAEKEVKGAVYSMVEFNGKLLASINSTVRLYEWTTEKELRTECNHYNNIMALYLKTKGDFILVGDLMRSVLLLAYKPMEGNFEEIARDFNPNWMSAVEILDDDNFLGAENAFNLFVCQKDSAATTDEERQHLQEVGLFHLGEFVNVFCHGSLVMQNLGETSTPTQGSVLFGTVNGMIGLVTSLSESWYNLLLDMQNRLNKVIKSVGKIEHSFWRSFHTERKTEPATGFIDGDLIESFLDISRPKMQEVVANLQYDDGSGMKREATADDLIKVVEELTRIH

DDB1‐DCAF12 [7] = biological target: T1, DDB1‐DCAF12; test: In vitro pull-downs with strep; type: binding; conditions: strep(II)-tagged DDB1-DCAF12, untagged CCT5; Coomassie-stained SDS–PAGE
[8] = biological target: biotinylated strep(II)-avi-DDB1-strep(II)-DCAF12 complex (wild type) (homo sapiens) (UniProt Q16531); test: FRET or BRET
biotinylated strep(II)-avi-DDB1-strep(II)-DCAF12 complex (wild type) (homo sapiens), sequence (Q16531 whole entry, chain 1 of 2): as the sequence (Q16531 whole entry partner) above
biotinylated strep(II)-avi-DDB1-strep(II)-DCAF12 complex (wild type) (homo sapiens), sequence (Q5T6F0 whole entry, chain 2 of 2, further chain): as the sequence (Q5T6F0 whole entry) above

CCT5_(10) peptide Glu532Ala, sequence (P48643 whole entry, looked up, change not shown, tested part not stated): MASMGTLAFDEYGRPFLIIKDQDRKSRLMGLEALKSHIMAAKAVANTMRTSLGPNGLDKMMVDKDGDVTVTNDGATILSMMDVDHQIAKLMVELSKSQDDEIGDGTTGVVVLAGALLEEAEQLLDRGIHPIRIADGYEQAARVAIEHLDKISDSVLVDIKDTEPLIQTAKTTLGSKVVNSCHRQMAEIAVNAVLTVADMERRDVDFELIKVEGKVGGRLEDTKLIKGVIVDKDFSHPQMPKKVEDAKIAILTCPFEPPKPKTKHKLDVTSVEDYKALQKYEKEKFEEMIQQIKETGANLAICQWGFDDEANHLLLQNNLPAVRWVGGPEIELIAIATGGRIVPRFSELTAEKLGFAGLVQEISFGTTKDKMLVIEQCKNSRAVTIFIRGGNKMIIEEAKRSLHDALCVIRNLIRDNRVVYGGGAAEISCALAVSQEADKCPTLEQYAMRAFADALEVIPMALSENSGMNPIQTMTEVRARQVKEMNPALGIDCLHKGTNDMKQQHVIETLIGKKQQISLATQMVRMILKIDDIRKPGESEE

Molecule: CC[C@H](C)[C@H](NC(=O)[C@H](CCSC)NC(=O)[C@H](CCCNC(=N)N)NC(=O)[C@@H](NC(=O)[C@H](CCSC)NC(=O)[C@H](CCC(N)=O)NC(=O)CCCN(C)C(=O)c1ccccc1-c1c2ccc(=N)c(S(=O)(=O)O)c-2oc2c(S(=O)(=O)O)c(N)ccc12)C(C)C)C(=O)N[C@@H](CC(C)C)C(=O)N[C@@H](CCCCN)C(=O)N[C@H](C(=O)N[C@@H](CC(=O)O)C(=O)N[C@@H](CC(=O)O)C(=O)N[C@H](C(=O)N[C@@H](CCCNC(=N)N)C(=O)N[C@@H](CCCCN)C(=O)N1CCC[C@H]1C(=O)NCC(=O)N[C@@H](CCC(=O)O)C(=O)N[C@@H](CO)C(=O)N[C@@H](CCC(=O)O)C(=O)N[C@@H](CCC(=O)O)C(=O)O)[C@@H](C)CC)[C@@H](C)CC [^488CCT5_20] (X1-[NMeGABA]QMVRMILKIDDIRKPGESEE-OH; C-terminus assumed)
- binding to DCAF12 His144Ala mutant (in words) [1]: failed to bind
- binding to DCAF12 Lys108Ala mutant (in words) [2]: failed to bind
- binding to DCAF12 Arg203Ala mutant (in words) [3]: abrogated substrate binding
- binding to DCAF12 Arg256Ala mutant (in words) [4]: abolished; also recorded: failed to bind
- binding to DCAF12 Arg344Ala mutant (in words) [5]: failed to bind

Molecule: AIRKPGESEE [CCT510 D532A]
- IC50 (DDB1‐DCAF12 [6]): 222 ± 25 nM

Molecule: CCT5 (1–529): CCT5 mutant without the 12 C‐terminal residues
- binding to DDB1-DCAF12 in pull-down (in words) (DDB1‐DCAF12 [7]): did not bind

Molecule: CCT5: purified recombinant full‐length human CCT5, a subunit of the TRiC chaperonin, monomeric
- binding to DDB1-DCAF12 in pull-down (in words) (DDB1‐DCAF12 [7]): efficiently bound

Molecule: CCT5_(10) peptide Glu532Ala (from UniProt P48643 532-541)
- IC50 [8]: 222 nM

Molecule: DARKPGESEE [CCT510 I533A]
- IC50 (DDB1‐DCAF12 [6]): 209 ± 25 nM

Molecule: DIAKPGESEE [CCT510 R534A]
- IC50 (DDB1‐DCAF12 [6]): 395 ± 68 nM

Molecule: DIRAPGESEE [CCT510 K535A]
- IC50 (DDB1‐DCAF12 [6]): 208 ± 26 nM

Molecule: DIRKAGESEE [CCT510 P536A]
- IC50 (DDB1‐DCAF12 [6]): 417 ± 53 nM

Molecule: DIRKPGASEE [CCT510 E538A]
- IC50 (DDB1‐DCAF12 [6]): 571 ± 103 nM

Molecule: DIRKPGEAEE [CCT510 S539A]
- IC50 (DDB1‐DCAF12 [6]): 125 ± 15 nM

Molecule: DIRKPGESAE [CCT510 E540A]
- IC50 (DDB1‐DCAF12 [6]; IC50, TR-FRET competition against TbDDB1-DCAF12^488, n = 3): > 50000 nM

Molecule: DIRKPGESEE [CCT5_10]
- IC50 (DDB1‐DCAF12 [6]): 363 ± 78 nM

Molecule: EGWRLFKIDKEYLLKMATEE [SAT1_20]
- IC50 (DDB1‐DCAF12 [6]): 291 ± 38 nM

Molecule: TRiC: recombinant ~ 1 MDa human TRiC chaperonin complex of eight co‐expressed subunits
- IC50 (DDB1‐DCAF12 [6]; TR-FRET competition against TbDDB1-DCAF12^488, n = 3): > 10000 nM
